Experimental data as given in patent publication US9850258B2, “Substituted tetrahydrocarbazole and carbazole carboxamide compounds” (BRISTOL-MYERS SQUIBB COMPANY, priority 2013, dated 2017).
Where two headings read alike, the source gives them in different places.

Columns and labels:
Jak2 tyrosine kinase = Jak2 tyrosine kinase (Homo sapiens (Human), UniProt O60674); experiment: Jak2 Tyrosine Kinase Assay; type: biochemical; details: for IC50: Jak2 tyrosine kinase, ATP 30 μM
[1] = system: CD69 expression on B cells in human whole blood; experiment: Whole Blood Assay of BCR-Stimulated CD69 Expression on B Cells; type: cell-based
human recombinant Btk = human recombinant Btk (Homo sapiens (Human), UniProt Q06187); experiment: Human Recombinant Btk Enzyme Assay; type: biochemical
Sequence of human recombinant Btk (Q06187 whole entry): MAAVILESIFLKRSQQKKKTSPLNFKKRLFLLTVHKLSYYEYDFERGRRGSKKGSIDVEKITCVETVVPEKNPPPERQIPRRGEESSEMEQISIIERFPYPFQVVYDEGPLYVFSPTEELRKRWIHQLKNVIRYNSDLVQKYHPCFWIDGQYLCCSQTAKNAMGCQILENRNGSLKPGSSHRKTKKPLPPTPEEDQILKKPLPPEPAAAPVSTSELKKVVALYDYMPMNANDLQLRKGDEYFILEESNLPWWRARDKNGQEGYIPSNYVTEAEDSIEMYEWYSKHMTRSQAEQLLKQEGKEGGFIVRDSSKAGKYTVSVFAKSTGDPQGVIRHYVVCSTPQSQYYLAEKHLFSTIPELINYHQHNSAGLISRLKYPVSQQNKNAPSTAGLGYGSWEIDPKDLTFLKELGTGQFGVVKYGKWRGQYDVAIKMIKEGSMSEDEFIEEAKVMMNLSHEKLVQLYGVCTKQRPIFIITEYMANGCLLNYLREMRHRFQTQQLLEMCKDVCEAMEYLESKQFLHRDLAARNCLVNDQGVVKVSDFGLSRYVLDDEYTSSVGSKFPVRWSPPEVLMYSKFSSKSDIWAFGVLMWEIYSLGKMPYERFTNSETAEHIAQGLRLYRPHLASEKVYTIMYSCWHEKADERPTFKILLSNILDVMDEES

Sequence of Jak2 tyrosine kinase (O60674 whole entry): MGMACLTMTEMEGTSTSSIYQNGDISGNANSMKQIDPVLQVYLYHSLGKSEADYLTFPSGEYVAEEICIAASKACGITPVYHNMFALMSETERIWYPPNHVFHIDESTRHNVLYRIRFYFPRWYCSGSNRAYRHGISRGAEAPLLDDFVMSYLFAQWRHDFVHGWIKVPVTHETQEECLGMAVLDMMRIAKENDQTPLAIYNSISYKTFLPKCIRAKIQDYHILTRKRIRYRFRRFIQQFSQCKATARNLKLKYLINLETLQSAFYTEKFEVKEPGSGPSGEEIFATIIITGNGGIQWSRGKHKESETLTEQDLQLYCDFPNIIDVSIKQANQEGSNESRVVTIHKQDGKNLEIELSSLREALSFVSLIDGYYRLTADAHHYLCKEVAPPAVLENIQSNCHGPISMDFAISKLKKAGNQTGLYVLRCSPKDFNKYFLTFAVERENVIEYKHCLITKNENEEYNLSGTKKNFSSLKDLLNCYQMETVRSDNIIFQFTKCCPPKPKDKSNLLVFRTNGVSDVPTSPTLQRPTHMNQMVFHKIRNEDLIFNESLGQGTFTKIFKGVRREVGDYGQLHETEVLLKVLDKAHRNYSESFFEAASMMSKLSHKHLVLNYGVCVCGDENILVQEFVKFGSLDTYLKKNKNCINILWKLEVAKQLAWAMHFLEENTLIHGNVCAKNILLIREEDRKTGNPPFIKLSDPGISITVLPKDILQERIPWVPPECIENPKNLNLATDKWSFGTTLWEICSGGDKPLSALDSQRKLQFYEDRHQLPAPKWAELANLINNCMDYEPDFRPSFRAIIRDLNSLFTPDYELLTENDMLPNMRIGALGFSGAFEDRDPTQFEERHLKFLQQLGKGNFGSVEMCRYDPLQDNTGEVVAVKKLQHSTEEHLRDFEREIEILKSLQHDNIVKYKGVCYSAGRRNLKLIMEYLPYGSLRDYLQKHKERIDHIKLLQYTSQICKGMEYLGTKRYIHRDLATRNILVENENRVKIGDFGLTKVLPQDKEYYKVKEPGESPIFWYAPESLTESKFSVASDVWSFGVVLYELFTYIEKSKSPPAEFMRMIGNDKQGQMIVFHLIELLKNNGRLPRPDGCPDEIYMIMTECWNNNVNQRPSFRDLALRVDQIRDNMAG

IC50 (Jak2 tyrosine kinase)	IC50 [1]	IC50 (human recombinant Btk)	Ratio of Jak2/Btk IC50 values (Jak2 tyrosine kinase; selectivity of Btk over Jak2)	IC50 ([1]; Homo sapiens, B-cell)	Ratio of Jak2/Btk IC50 values (Jak2 tyrosine kinase; kinase selectivity of Btk over Jak2, larger value = more selective for Btk)	SMILES
790 nM	–	0.66 nM	–	–	–	Cc1cc(C(N)=O)c2[nH]c3cc(C(C)(C)O)ccc3c2c1-c1cccc(-n2c(=O)c3cccc(F)c3n(C)c2=O)c1C (atropisomer, axis not shown) [Example 29, 4-(R)-(3-(S)-(8-Fluoro-1-methyl-2,4-dioxo-1,2-dihydroquinazolin-3(4H)-yl)-2-methylphenyl)-7-(2-hydroxypropan-2-yl)-3-methyl-9H-carbazole-1-carboxamide]
> 2000 nM	–	0.83 nM	>2400	–	–	Cc1c(-c2c(Cl)cc(C(N)=O)c3[nH]c4cc(C(C)(C)O)ccc4c23)cccc1-n1c(=O)[nH]c2c(F)cc(F)cc2c1=O (racemic) [Example 10, 3-Chloro-4-(RS)-(3-(RS)-(6,8-difluoro-2,4-dioxo-1,2-dihydroquinazolin-3(4H)-yl)-2-methylphenyl)-7-(2-hydroxypropan-2-yl)-9H-carbazole-1-carboxamide]
–	–	–	–	21 nM	–	Cc1c(-c2c(F)cc(C(N)=O)c3[nH]c4cc(C(C)(C)O)ccc4c23)cccc1-n1c(=O)[nH]c2c(F)cc(F)cc2c1=O (single isomer, unassigned) [Example 73]
–	–	–	–	–	29	Cc1nc(C(N)=O)c2[nH]c3cc(C(C)(C)O)ccc3c2c1-c1cccc(-n2cnc3ccccc3c2=O)c1C [Comparative Example 76, 7-(2-Hydroxypropan-2-yl)-3-methyl-4-(2-methyl-3-(4-oxoquinazolin-3(4H)-yl)phenyl)-9H-pyrido[3,4-b]indole-1-carboxamide, reference compound]
350 nM	–	1.3 nM	270	–	–	Cc1c(-c2c(Cl)cc(C(N)=O)c3[nH]c4cc(C(C)(C)O)ccc4c23)cccc1-n1c(=O)c2cccc(C)c2n(C)c1=O [Example 4, 3-Chloro-4-(R)-(3-(1,8-dimethyl-2,4-dioxo-1,2-dihydroquinazolin-3(4H)-yl)-2-methylphenyl)-7-(2-hydroxypropan-2-yl)-9H-carbazole-1-carboxamide]
170 nM	–	–	–	–	–	Cc1c(-c2c(F)cc(C(N)=O)c3[nH]c4cc(C(C)(C)O)ccc4c23)cccc1-n1c(=O)c2cccc(F)c2n(C)c1=O [Example 17, 3-Fluoro-4-(3-(8-fluoro-1-methyl-2,4-dioxo-1,2-dihydroquinazolin-3(4H)-yl)-2-methylphenyl)-7-(2-hydroxypropan-2-yl)-9H-carbazole-1-carboxamide]
1200 nM	–	0.46 nM	2600	–	–	Cc1c(-c2c(F)cc(C(N)=O)c3[nH]c4cc(C(C)(C)O)ccc4c23)cccc1-n1c(=O)[nH]c2c(F)cccc2c1=O [Example 20, 3-Fluoro-4-(3-(8-fluoro-2,4-dioxo-1,2-dihydroquinazolin-3(4H)-yl)-2-methylphenyl)-7-(2-hydroxypropan-2-yl)-9H-carbazole-1-carboxamide]
–	–	2 nM	–	–	–	Cn1c(=O)n(-c2cccc(-c3c(Cl)cc(C(N)=O)c4[nH]c5cc(C(C)(C)O)ccc5c34)c2Cl)c(=O)c2ccccc21 [Example 42, 3-Chloro-4-(2-chloro-3-(1-methyl-2,4-dioxo-1,2-dihydroquinazolin-3(4H)-yl)phenyl)-7-(2-hydroxypropan-2-yl)-9H-carbazole-1-carboxamide]

Second part, the compound before the results:

SMILES	IC50 (Jak2 tyrosine kinase)	IC50 [1]	IC50 (human recombinant Btk)	Ratio of Jak2/Btk IC50 values (Jak2 tyrosine kinase; selectivity of Btk over Jak2)	IC50 ([1]; Homo sapiens, B-cell)	Ratio of Jak2/Btk IC50 values (Jak2 tyrosine kinase; kinase selectivity of Btk over Jak2, larger value = more selective for Btk)
Cc1c(-c2c(F)cc(C(N)=O)c3[nH]c4cc(C(C)(C)O)ccc4c23)cccc1-n1c(=O)c2cccc(F)c2n(C)c1=O (atropisomer, axis not shown) [Example 18, 3-Fluoro-4-(3-(S)-(8-fluoro-1-methyl-2,4-dioxo-1,2-dihydroquinazolin-3(4H)-yl)-2-methylphenyl)-7-(2-hydroxypropan-2-yl)-9H-carbazole-1-carboxamide]	2200 nM	–	–	–	–	–
Cc1c(-c2c(F)cc(C(N)=O)c3[nH]c4cc(C(C)(C)O)ccc4c23)cccc1-n1c(=O)c2cccc(F)c2n(C)c1=O (atropisomer, axis not shown) [Example 19, 3-Fluoro-4-(R)-(3-(S)-(8-fluoro-1-methyl-2,4-dioxo-1,2-dihydroquinazolin-3(4H)-yl)-2-methylphenyl)-7-(2-hydroxypropan-2-yl)-9H-carbazole-1-carboxamide]	2000 nM	91 nM	–	–	–	–
Cc1c(-c2c(Cl)cc(C(N)=O)c3[nH]c4cc(C(C)(C)O)ccc4c23)cccc1-n1c(=O)c2ccccc2n(C)c1=O [Example 3, 3-Chloro-7-(2-hydroxypropan-2-yl)-4-(R)-(2-methyl-3-(1-methyl-2,4-dioxo-1,2-dihydroquinazolin-3(4H)-yl)phenyl)-9H-carbazole-1-carboxamide]	2000 nM	–	1 nM	2000	–	–
COc1cccc2c(=O)n(-c3cccc(-c4c(Cl)cc(C(N)=O)c5[nH]c6cc(C(C)(C)O)ccc6c45)c3C)c(=O)n(C)c12 [Example 7, 3-Chloro-7-(2-hydroxypropan-2-yl)-4-(R)-(3-(8-methoxy-1-methyl-2,4-dioxo-1,2-dihydroquinazolin-3(4H)-yl)-2-methylphenyl)-9H-carbazole-1-carboxamide]	1600 nM	–	0.81 nM	2000	–	–
Cc1c(-c2c(Cl)cc(C(N)=O)c3[nH]c4cc(C(C)(C)O)ccc4c23)cccc1-n1c(=O)c2cc(F)ccc2n(C)c1=O [Example 8, 3-Chloro-4-(R)-(3-(6-fluoro-1-methyl-2,4-dioxo-1,2-dihydroquinazolin-3(4H)-yl)-2-methylphenyl)-7-(2-hydroxypropan-2-yl)-9H-carbazole-1-carboxamide]	> 2000 nM	–	0.65 nM	>3100	–	–
Cc1c(-c2c(Cl)cc(C(N)=O)c3[nH]c4cc(C(C)(C)O)ccc4c23)cccc1-n1c(=O)c2ccc(F)cc2n(C)c1=O [Example 9, 3-Chloro-4-(R)-(3-(7-fluoro-1-methyl-2,4-dioxo-1,2-dihydroquinazolin-3(4H)-yl)-2-methylphenyl)-7-(2-hydroxypropan-2-yl)-9H-carbazole-1-carboxamide]	> 2000 nM	–	0.62 nM	>3200	–	–
Cc1c(-c2c(Cl)cc(C(N)=O)c3[nH]c4cc(C(C)(C)O)ccc4c23)cccc1-n1c(=O)ccn(-c2ccc(F)cc2)c1=O [Example 23, 3-Chloro-4-(3-(3-(4-fluorophenyl)-2,6-dioxo-2,3-dihydropyrimidin-1(6H)-yl)-2-methylphenyl)-7-(2-hydroxypropan-2-yl)-9H-carbazole-1-carboxamide]	440 nM	–	0.44 nM	1000	–	–
Cc1c(-c2c(Cl)cc(C(N)=O)c3[nH]c4cc(C(C)(C)O)ccc4c23)cccc1-n1c(=O)ccn(-c2ccc(F)cc2)c1=O [Example 24, 3-Chloro-4-(R)-(3-(3-(4-fluorophenyl)-2,6-dioxo-2,3-dihydropyrimidin-(6H)-yl)-2-methylphenyl)-7-(2-hydroxypropan-2-yl)-9H-carbazole-1-carboxamide]	1800 nM	–	0.33 nM	5500	–	–
Cn1c(=O)n(-c2cccc(-c3c(Cl)cc(C(N)=O)c4[nH]c5cc(C(C)(C)O)ccc5c34)c2Cl)c(=O)c2ccccc21 [Example 43, 3-Chloro-4-(R)-(2-chloro-3-(1-methyl-2,4-dioxo-1,2-dihydroquinazolin-3(4H)-yl)phenyl)-7-(2-hydroxypropan-2-yl)-9H-carbazole-1-carboxamide]	–	–	0.47 nM	–	–	–
Cn1c(=O)n(-c2cccc(-c3c(Cl)cc(C(N)=O)c4[nH]c5cc(C(C)(C)O)ccc5c34)c2Cl)c(=O)c2cccc(F)c21 [Example 44, 3-Chloro-4-(2-chloro-3-(8-fluoro-1-methyl-2,4-dioxo-1,2-dihydroquinazolin-3(4H)-yl)phenyl)-7-(2-hydroxypropan-2-yl)-9H-carbazole-1-carboxamide]	–	–	4.7 nM	–	–	–
CC(C)(O)c1ccc2c(c1)[nH]c1c(C(N)=O)cc(Cl)c(-c3cccc(-n4c(=O)[nH]c5c(F)cccc5c4=O)c3Cl)c12 [Example 47, 3-Chloro-4-(R)-(2-chloro-3-(8-fluoro-2,4-dioxo-1,2-dihydroquinazolin-3(4H)-yl)phenyl)-7-(2-hydroxypropan-2-yl)-9H-carbazole-1-carboxamide]	1800 nM	–	0.35 nM	5100	–	–
